From the supplement of paper PMC10307832

What was measured:
Assay in all cases: relative viability (nuclei count vs DMSO), 5 days (fraction); higher = more cells survive
[1] = system: Calu-6
Method in brief: (§1)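 Dosing by pin tool came one day after lung cancer cell lines were seeded in 1536-well plates, using either one drug or a fixed anchor-drug dose plus five library-drug doses (not always all listed) in √10 steps. After 5 days, nuclei were counted on 4× images. Relative viability is treated-well nuclei count divided by vehicle-well nuclei count, and values are medians of duplicate plates.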

[2] = system: NCI-H596
Method in brief: as §1

[3] = system: A549
Method in brief: as §1

[4] = system: NCI-H23
Method in brief: as §1

[5] = system: IA-LM
Method in brief: as §1

[6] = system: NCI-H1299
Method in brief: as §1

[7] = system: EBC-1
Method in brief: as §1

[8] = system: NCI-H1703
Method in brief: as §1

[9] = system: NCI-H1993
Method in brief: as §1

SMILES: O=C(O)c1ccc(-c2c[nH]c3ncc(-c4ccccc4)cc23)cc1C1CCCC1 + CS(=O)(=O)CCNCc1ccc(-c2ccc3ncnc(Nc4ccc(OCc5cccc(F)c5)c(Cl)c4)c3c2)o1 [Lapatinib] (partner 2 µM)
- relative viability ([1]; first compound 0.04 µM): 1.02
- relative viability ([1]; first compound 0.1265 µM): 1.09
- relative viability ([1]; first compound 0.4 µM): 0.984
- relative viability ([1]; first compound 1.265 µM): 0.78
- relative viability ([2]; first compound 0.04 µM): 1.1
- relative viability ([2]; first compound 0.1265 µM): 1.02
- relative viability ([2]; first compound 0.4 µM): 0.979
- relative viability ([2]; first compound 1.265 µM): 1.03
- relative viability ([3]; first compound 0.04 µM): 1.01
- relative viability ([3]; first compound 0.1265 µM): 0.985
- relative viability ([3]; first compound 0.4 µM): 0.899
- relative viability ([3]; first compound 1.265 µM): 0.837
- relative viability ([4]; first compound 0.04 µM): 1.12
- relative viability ([4]; first compound 0.1265 µM): 0.894
- relative viability ([4]; first compound 0.4 µM): 0.919
- relative viability ([4]; first compound 1.265 µM): 0.752
- relative viability ([5]; first compound 0.04 µM): 0.913
- relative viability ([5]; first compound 0.1265 µM): 1.03
- relative viability ([5]; first compound 0.4 µM): 0.974
- relative viability ([5]; first compound 1.265 µM): 0.782
- relative viability ([6]; first compound 0.04 µM): 0.945
- relative viability ([6]; first compound 0.1265 µM): 1
- relative viability ([6]; first compound 0.4 µM): 0.938
- relative viability ([6]; first compound 1.265 µM): 0.829
- relative viability ([7]; first compound 0.04 µM): 0.224
- relative viability ([7]; first compound 0.1265 µM): 0.215
- relative viability ([7]; first compound 0.4 µM): 0.227
- relative viability ([7]; first compound 1.265 µM): 0.242
- relative viability ([8]; first compound 0.04 µM): 1.11
- relative viability ([8]; first compound 0.1265 µM): 1.44
- relative viability ([8]; first compound 0.4 µM): 1.06
- relative viability ([8]; first compound 1.265 µM): 0.929
- relative viability ([9]; first compound 0.04 µM): 0.927
- relative viability ([9]; first compound 0.4 µM): 0.789
- relative viability ([9]; first compound 1.265 µM): 0.835

SMILES: CC1(C)CCC(c2ccc(Cl)cc2)=C(CN2CCN(c3ccc(C(=O)NS(=O)(=O)c4ccc(N[C@H](CCN5CCOCC5)CSc5ccccc5)c(S(=O)(=O)C(F)(F)F)c4)cc3)CC2)C1 [Navitoclax] + Cc1nc(NC(=O)N2CCC[C@H]2C(N)=O)sc1-c1ccnc(C(C)(C)C(F)(F)F)c1 [Alpelisib] (partner 2 µM)
- relative viability ([1]; first compound 0.005 µM): 0.973
- relative viability ([1]; first compound 0.01581 µM): 1.08
- relative viability ([1]; first compound 0.05 µM): 0.943
- relative viability ([1]; first compound 0.1581 µM): 0.875
- relative viability ([1]; first compound 0.5 µM): 0.938
- relative viability ([2]; first compound 0.005 µM): 0.515
- relative viability ([2]; first compound 0.01581 µM): 0.481
- relative viability ([2]; first compound 0.05 µM): 0.399
- relative viability ([2]; first compound 0.1581 µM): 0.57
- relative viability ([2]; first compound 0.5 µM): 0.408
- relative viability ([3]; first compound 0.005 µM): 0.774
- relative viability ([3]; first compound 0.01581 µM): 0.932
- relative viability ([3]; first compound 0.05 µM): 0.922
- relative viability ([3]; first compound 0.1581 µM): 0.803
- relative viability ([3]; first compound 0.5 µM): 0.778
- relative viability ([4]; first compound 0.005 µM): 0.649
- relative viability ([4]; first compound 0.01581 µM): 0.679
- relative viability ([4]; first compound 0.05 µM): 0.676
- relative viability ([4]; first compound 0.1581 µM): 0.633
- relative viability ([4]; first compound 0.5 µM): 0.598
- relative viability ([5]; first compound 0.005 µM): 0.69
- relative viability ([5]; first compound 0.01581 µM): 0.986
- relative viability ([5]; first compound 0.05 µM): 0.737
- relative viability ([5]; first compound 0.1581 µM): 0.792
- relative viability ([5]; first compound 0.5 µM): 0.833
- relative viability ([6]; first compound 0.005 µM): 1.01
- relative viability ([6]; first compound 0.01581 µM): 1.09
- relative viability ([6]; first compound 0.05 µM): 1.11
- relative viability ([6]; first compound 0.1581 µM): 1.06
- relative viability ([6]; first compound 0.5 µM): 1.03
- relative viability ([7]; first compound 0.005 µM): 0.781
- relative viability ([7]; first compound 0.01581 µM): 1.13
- relative viability ([7]; first compound 0.05 µM): 0.928
- relative viability ([7]; first compound 0.1581 µM): 0.829
- relative viability ([7]; first compound 0.5 µM): 0.592
- relative viability ([8]; first compound 0.005 µM): 0.308
- relative viability ([8]; first compound 0.01581 µM): 0.406
- relative viability ([8]; first compound 0.05 µM): 0.425
- relative viability ([8]; first compound 0.1581 µM): 0.457
- relative viability ([8]; first compound 0.5 µM): 0.336
- relative viability ([9]; first compound 0.005 µM): 0.658
- relative viability ([9]; first compound 0.01581 µM): 0.732
- relative viability ([9]; first compound 0.05 µM): 0.682
- relative viability ([9]; first compound 0.1581 µM): 0.676
- relative viability ([9]; first compound 0.5 µM): 0.749

SMILES: Oc1nc(-c2ccc(C(F)(F)F)cc2)nc2c1CSCC2 [XAV939] + CS(=O)(=O)CCNCc1ccc(-c2ccc3ncnc(Nc4ccc(OCc5cccc(F)c5)c(Cl)c4)c3c2)o1 [Lapatinib] (partner 2 µM)
- relative viability ([1]; first compound 0.08 µM): 1.08
- relative viability ([1]; first compound 0.253 µM): 0.945
- relative viability ([1]; first compound 0.8 µM): 0.991
- relative viability ([1]; first compound 2.53 µM): 0.903
- relative viability ([2]; first compound 0.08 µM): 1.21
- relative viability ([2]; first compound 0.253 µM): 1.12
- relative viability ([2]; first compound 0.8 µM): 1.1
- relative viability ([2]; first compound 2.53 µM): 0.656
- relative viability ([3]; first compound 0.08 µM): 1.1
- relative viability ([3]; first compound 0.253 µM): 0.985
- relative viability ([3]; first compound 0.8 µM): 0.897
- relative viability ([3]; first compound 2.53 µM): 0.765
- relative viability ([4]; first compound 0.08 µM): 1.17
- relative viability ([4]; first compound 0.253 µM): 1.01
- relative viability ([4]; first compound 0.8 µM): 0.966
- relative viability ([4]; first compound 2.53 µM): 0.932
- relative viability ([5]; first compound 0.08 µM): 0.901
- relative viability ([5]; first compound 0.253 µM): 0.64
- relative viability ([5]; first compound 0.8 µM): 0.687
- relative viability ([5]; first compound 2.53 µM): 0.483
- relative viability ([6]; first compound 0.08 µM): 0.989
- relative viability ([6]; first compound 0.253 µM): 1.01
- relative viability ([6]; first compound 0.8 µM): 0.962
- relative viability ([6]; first compound 2.53 µM): 0.97
- relative viability ([7]; first compound 0.08 µM): 0.206
- relative viability ([7]; first compound 0.253 µM): 0.205
- relative viability ([7]; first compound 0.8 µM): 0.218
- relative viability ([7]; first compound 2.53 µM): 0.209
- relative viability ([8]; first compound 0.08 µM): 1.21
- relative viability ([8]; first compound 0.253 µM): 1.08
- relative viability ([8]; first compound 0.8 µM): 1.15
- relative viability ([8]; first compound 2.53 µM): 0.959
- relative viability ([9]; first compound 0.8 µM): 0.866
- relative viability ([9]; first compound 2.53 µM): 0.702
